The test system of the assay is Mango-II (RNA, aptamer) GCGUACGAAGGAGAGGAGAGGAAGAGGAGAGUACGC
In words: fluorescence binding.

SMILES strings stand for the structures.

`CN1C=CC(=C/C=C/c2sc3ccccc3[n+]2CC(=O)NCCOCCOCCOCCNC(=O)CCCC[C@@H]2SC[C@@H]3NC(=O)N[C@@H]32)c2ccccc21`: the Kd is given as ~ 1.4 nM.
Consider `CN1C=CC(=Cc2sc3ccccc3[n+]2CC(=O)NCCOCCOCCOCCNC(=O)CCCC[C@@H]2SC[C@@H]3NC(=O)N[C@@H]32)c2ccccc21`, for which the equilibrium dissociation constant (Kd) is on record as 1.1 nM.

The values above are taken from paper PMC6315298 (2018).
